{
  "source": "ChEMBL document CHEMBL6092145",
  "about": "“Recent advances in the design of small molecular drugs with acrylamides covalent warheads” (Bioorg Med Chem, 2024)",
  "key": {"NCI-H358 [1]": {"test_system": "NCI-H358", "experiment": "cells", "format": "functional, cell-based", "settings": "Homo sapiens", "description": "Antiproliferative activity against human NCI-H358 cells assessed as reduction in cell viability"}, "[2]": {"target": "Tyrosine-protein kinase Blk (Homo sapiens, UniProt P51451)", "sequence (P51451 whole entry)": "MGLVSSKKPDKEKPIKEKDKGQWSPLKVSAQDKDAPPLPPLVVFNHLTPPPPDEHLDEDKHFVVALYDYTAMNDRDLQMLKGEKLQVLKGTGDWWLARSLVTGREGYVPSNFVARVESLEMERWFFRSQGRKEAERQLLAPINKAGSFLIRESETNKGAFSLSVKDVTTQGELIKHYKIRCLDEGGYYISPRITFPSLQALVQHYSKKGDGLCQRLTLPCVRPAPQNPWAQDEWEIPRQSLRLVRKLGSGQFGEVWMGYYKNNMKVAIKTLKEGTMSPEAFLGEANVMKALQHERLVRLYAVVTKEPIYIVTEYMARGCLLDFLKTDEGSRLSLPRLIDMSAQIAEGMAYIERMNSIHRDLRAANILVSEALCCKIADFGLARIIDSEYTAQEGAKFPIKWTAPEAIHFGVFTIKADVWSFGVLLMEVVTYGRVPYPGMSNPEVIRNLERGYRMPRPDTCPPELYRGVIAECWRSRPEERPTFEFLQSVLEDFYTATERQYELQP", "description": "Inhibition of BLK (unknown origin)"}, "[3]": {"target": "Tyrosine-protein kinase BTK (Homo sapiens, UniProt Q06187)", "sequence (Q06187 whole entry)": "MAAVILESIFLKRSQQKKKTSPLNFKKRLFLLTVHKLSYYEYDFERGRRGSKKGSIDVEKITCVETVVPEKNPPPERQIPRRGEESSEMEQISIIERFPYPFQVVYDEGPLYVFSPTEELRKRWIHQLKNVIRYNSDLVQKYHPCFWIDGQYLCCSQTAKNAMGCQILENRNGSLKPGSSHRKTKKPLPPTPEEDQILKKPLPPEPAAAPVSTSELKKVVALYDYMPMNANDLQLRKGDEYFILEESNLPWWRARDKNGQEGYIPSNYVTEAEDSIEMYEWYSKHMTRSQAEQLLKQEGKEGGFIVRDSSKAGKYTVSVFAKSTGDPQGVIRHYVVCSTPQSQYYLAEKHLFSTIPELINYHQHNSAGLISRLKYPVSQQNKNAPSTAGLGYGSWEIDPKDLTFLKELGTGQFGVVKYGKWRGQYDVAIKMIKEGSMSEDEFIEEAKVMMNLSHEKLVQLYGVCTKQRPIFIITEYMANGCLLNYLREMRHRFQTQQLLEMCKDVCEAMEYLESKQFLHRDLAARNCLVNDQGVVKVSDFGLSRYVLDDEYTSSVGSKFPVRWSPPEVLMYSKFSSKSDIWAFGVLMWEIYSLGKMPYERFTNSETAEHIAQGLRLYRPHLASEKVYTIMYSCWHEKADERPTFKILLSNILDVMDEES", "description": "Inhibition of BTK (unknown origin)"}, "NCI-H358 [4]": {"test_system": "NCI-H358", "experiment": "cells", "format": "functional, cell-based", "settings": "Homo sapiens, NCI-H358, 72 h", "description": "Antiproliferative activity against human NCI-H358 cells assessed as reduction in cell growth incubated for 72 hrs by cell-titer glo assay"}, "clinical": {"experiment": "clinical", "settings": "human, in vivo, po", "description": "Oral bioavailability in human"}, "[5]": {"target": "Tyrosine-protein kinase Lck (Homo sapiens, UniProt P06239)", "sequence (P06239 whole entry)": "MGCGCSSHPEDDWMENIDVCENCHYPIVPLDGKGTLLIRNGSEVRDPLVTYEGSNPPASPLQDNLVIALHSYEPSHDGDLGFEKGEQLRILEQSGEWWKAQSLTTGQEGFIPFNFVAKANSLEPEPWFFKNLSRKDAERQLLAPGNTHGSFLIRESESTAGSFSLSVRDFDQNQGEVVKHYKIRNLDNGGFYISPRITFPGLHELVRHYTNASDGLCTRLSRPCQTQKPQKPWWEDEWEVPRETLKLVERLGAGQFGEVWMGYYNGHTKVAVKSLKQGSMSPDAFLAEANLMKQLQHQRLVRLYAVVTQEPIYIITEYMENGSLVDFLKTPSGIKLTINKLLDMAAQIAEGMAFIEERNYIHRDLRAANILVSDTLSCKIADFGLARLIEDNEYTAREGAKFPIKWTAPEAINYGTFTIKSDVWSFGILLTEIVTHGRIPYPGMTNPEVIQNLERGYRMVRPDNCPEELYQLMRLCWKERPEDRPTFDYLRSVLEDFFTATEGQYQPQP", "description": "Inhibition of LCK (unknown origin) using TK as substrate incubated for 30 mins by HTRF assay"}, "[6]": {"target": "Tyrosine-protein kinase Lyn (Homo sapiens, UniProt P07948)", "sequence (P07948 whole entry)": "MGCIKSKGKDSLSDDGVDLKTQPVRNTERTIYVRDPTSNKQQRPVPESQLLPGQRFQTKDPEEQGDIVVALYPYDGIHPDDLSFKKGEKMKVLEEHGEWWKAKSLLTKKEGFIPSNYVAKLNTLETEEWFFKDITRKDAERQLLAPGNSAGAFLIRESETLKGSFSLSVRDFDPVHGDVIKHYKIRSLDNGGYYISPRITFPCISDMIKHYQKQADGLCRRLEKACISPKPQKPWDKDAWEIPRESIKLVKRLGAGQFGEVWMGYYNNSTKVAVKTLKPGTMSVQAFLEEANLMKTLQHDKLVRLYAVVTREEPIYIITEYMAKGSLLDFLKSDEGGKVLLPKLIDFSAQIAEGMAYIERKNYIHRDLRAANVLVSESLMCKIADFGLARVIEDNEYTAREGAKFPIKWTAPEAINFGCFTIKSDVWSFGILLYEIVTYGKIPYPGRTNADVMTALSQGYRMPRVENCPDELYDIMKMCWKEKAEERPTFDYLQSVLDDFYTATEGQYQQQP", "description": "Inhibition of LYN (unknown origin)"}, "[7]": {"target": "Epidermal growth factor receptor (Homo sapiens, UniProt P00533)", "sequence (P00533 whole entry)": "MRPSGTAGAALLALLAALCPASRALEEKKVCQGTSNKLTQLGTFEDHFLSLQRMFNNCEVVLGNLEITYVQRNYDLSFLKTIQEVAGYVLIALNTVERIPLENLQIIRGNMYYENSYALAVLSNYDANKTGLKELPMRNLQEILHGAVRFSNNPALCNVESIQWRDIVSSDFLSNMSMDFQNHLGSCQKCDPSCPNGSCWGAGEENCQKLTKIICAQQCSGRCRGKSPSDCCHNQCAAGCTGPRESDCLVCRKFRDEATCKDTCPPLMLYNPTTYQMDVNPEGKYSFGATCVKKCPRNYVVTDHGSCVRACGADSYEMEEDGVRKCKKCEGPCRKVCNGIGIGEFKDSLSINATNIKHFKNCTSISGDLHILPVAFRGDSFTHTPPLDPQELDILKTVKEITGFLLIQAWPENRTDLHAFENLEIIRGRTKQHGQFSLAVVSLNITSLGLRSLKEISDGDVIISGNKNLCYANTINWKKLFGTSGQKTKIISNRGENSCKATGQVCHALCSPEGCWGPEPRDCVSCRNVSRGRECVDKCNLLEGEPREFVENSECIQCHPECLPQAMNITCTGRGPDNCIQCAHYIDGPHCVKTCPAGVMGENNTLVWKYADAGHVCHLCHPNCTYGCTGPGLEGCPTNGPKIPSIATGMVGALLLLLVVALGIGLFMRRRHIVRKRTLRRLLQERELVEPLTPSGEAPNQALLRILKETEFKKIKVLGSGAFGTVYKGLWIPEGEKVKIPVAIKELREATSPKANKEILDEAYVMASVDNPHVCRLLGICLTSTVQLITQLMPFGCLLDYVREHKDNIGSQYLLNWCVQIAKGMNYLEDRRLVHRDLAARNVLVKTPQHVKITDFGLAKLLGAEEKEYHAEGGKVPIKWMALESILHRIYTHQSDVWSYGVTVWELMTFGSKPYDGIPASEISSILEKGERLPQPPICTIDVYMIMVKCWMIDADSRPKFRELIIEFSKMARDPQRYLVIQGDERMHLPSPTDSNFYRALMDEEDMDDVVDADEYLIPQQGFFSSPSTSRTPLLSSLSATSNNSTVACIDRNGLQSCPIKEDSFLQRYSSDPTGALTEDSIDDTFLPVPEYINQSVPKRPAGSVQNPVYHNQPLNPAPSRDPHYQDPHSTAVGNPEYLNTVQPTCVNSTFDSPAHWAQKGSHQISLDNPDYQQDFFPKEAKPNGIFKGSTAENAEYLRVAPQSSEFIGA"}},
  "data": [
    {"molecule": "C=CC(=O)N1CCN(c2ncnc3c(F)c(-c4c(O)cccc4F)c(Cl)cc23)CC1", "values": [
      {"measurement": "IC50", "setting": "NCI-H358 [1]", "value": 0.939, "unit": "µM"}
    ]},
    {"molecule": "C=CC(=O)N1CC(N2CCN(C(=O)CNc3cc(C4(C)CC4)c(Cl)cc3O)CC2)C1", "values": [
      {"measurement": "IC50", "setting": "NCI-H358 [1]", "value": 0.25, "unit": "µM"}
    ]},
    {"molecule": "C=CC(=O)NC1Cn2c(c(-c3ccc(Oc4ccccc4)cc3)c3c(N)ncnc32)C1=C", "note": "(centres undefined)", "values": [
      {"measurement": "IC50", "setting": "[2]", "value": 0.0005, "unit": "µM"},
      {"measurement": "IC50", "setting": "[3]", "value": 0.0004, "unit": "µM"}
    ]},
    {"molecule": "C=C(F)C(=O)N1CCN(c2nc(OC[C@@H]3CCCN3CCCOCCC(=O)N[C@H](C(=O)N3C[C@H](O)C[C@H]3C(=O)NCc3ccc(-c4scnc4C)cc3)C(C)(C)C)nc3c2CCN(c2cccc4cccc(Cl)c24)C3)C[C@@H]1CC#N", "values": [
      {"measurement": "IC50", "setting": "NCI-H358 [4]", "value": 0.52, "unit": "µM"}
    ]},
    {"molecule": "CN(C)CCSSCCNC(=O)C1CCN(C(=O)CSc2ccc(Cl)cc2)CC1", "values": [
      {"measurement": "IC50", "setting": "[2]", "value": "> 10", "unit": "µM"}
    ]},
    {"molecule": "CN(C)CCSSCCC(=O)Nc1cc(-c2cccs2)[nH]n1", "values": [
      {"measurement": "IC50", "setting": "[2]", "value": "> 10", "unit": "µM"}
    ]},
    {"molecule": "C=CC(=O)N1CCN(c2nc(OC[C@@H]3CCCN3C)nc3c2CCN(c2cccc4cccc(Cl)c24)C3)C[C@@H]1CC#N", "values": [
      {"measurement": "bioavailability", "setting": "clinical", "value": 16.9, "unit": "%"},
      {"measurement": "IC50", "setting": "NCI-H358 [4]", "value": 0.001, "unit": "µM"}
    ]},
    {"molecule": "C=CC(=O)N1CCN(c2nc(=O)n(-c3c(C)ccnc3C(C)C)c3nc(-c4c(O)cccc4F)c(F)cc23)[C@@H](C)C1", "note": "[SOTORASIB]", "values": [
      {"measurement": "IC50", "setting": "NCI-H358 [1]", "value": 0.068, "unit": "µM"}
    ]},
    {"molecule": "C=CC(=O)N1CCN(C(=O)CNc2cc(Cl)c(Cl)cc2OC)CC1", "values": [
      {"measurement": "IC50", "setting": "[2]", "value": "> 1", "unit": "µM"}
    ]},
    {"molecule": "Nc1ncnc2c1c(-c1ccc(Oc3ccccc3)cc1)nn2C1CCCC1", "values": [
      {"measurement": "IC50", "setting": "[5]", "value": 0.0046, "unit": "µM"},
      {"measurement": "IC50", "setting": "[6]", "value": 0.0025, "unit": "µM"}
    ]},
    {"molecule": "CN(C)CCSSCCC(=O)NC1CCN(C(=O)COc2ccc(Cl)cc2Cl)CC1", "values": [
      {"measurement": "IC50", "setting": "[7]", "value": "> 10", "unit": "µM"}
    ]}
  ]
}
